Paper PMC10011573, “Development of novel broad-spectrum antimicrobial lipopeptides derived from plantaricin NC8 β” (Scientific Reports, 2023)
Residues, ends and D or L forms follow the SMILES beside them. *: point of attachment. Pentanoyl = CCCCC(=O)*

What was measured:
human erythrocytes = assay: Hemolytic activity; assay type: cell-based; conditions: 15% suspension in PBS, 1 h, 37 °C, absorbance 540 nm, highest tested concentration 100 µM
E. cloacae = conditions: 20 h
[1] = tested on: S. aureus (ATCC 29213, MSSA); conditions: ATCC 29213, 20 h
A. baumannii = conditions: 20 h
E. faecium = conditions: 20 h
K. pneumoniae = conditions: 20 h
P. aeruginosa = conditions: 20 h
E. coli (K-12 MG1655) = conditions: Table 3; K-12 MG1655; broth microdilution, 50:50 PBS/LB-broth, 200 µL, 20 h, 37 °C

With `CCCCC(=O)N[C@@H](CC(C)C)C(=O)NCC(=O)N[C@H](C(=O)N[C@@H](CCCCN)C(=O)N[C@H](C(=O)N[C@@H](CC(C)C)C(=O)N[C@@H](Cc1c[nH]c2ccccc12)C(=O)N[C@@H](CO)C(=O)N[C@@H](C)C(=O)N[C@@H](Cc1ccc(O)cc1)C(=O)N[C@@H](CCCCN)C(=O)N[C@@H](Cc1c[nH]cn1)C(=O)N[C@@H](CCCNC(=N)N)C(=O)N[C@@H](CCCCN)C(=O)N[C@H](C(=O)N[C@H](C(N)=O)[C@@H](C)CC)[C@@H](C)O)[C@@H](C)CC)[C@@H](C)CC` [L-6-C5] (Pentanoyl-LGIKILWSAYKHRKTI-NH2) as the molecule, how does the “HC, hemolytic concentration at 5% hemolytic activity” value (human erythrocytes) read?
The value was over 100 µM.

And the MBC (E. cloacae)?
Its MBC is over 100 µM.

And the MIC (E. cloacae)?
Its MIC is over 100 µM.

And the “S. aureus MBC” value [1]?
Its value is 6.2 µM.

And the “S. aureus MIC” value [1]?
The value was 6.2 µM.

And the MBC (A. baumannii)?
Its MBC is 6.3 µM.

What about the MIC (A. baumannii) of the same molecule?
Its MIC is 3.1 µM.

And the MBC (E. faecium)?
Its MBC is 12.5 µM.

And the MIC (E. faecium)?
Its MIC is 6.3 µM.

And the MBC (K. pneumoniae)?
The MBC was 100 µM.

And the MIC (K. pneumoniae)?
The MIC was 50 µM.

What about the MBC (P. aeruginosa) of the same molecule?
The MBC was 100 µM.

What about the MIC (P. aeruginosa) of the same molecule?
Its MIC is 50 µM.

And the “E. coli MBC” value (E. coli (K-12 MG1655))?
Its value is 6.2 µM.

What about the “E. coli MIC” value (E. coli (K-12 MG1655)) of the same molecule?
Its value is 6.2 µM.
